Bridge positions count the residues as written; N and C are the ends. Square brackets hold non-standard residues; d marks the D form. Peptide text beside a SMILES is read from it. S5 = C=CCCC[C@](C)(N)C(=O)O

Data set [1] is described as follows: Proteolytic stability assay, chymotrypsin. It is filed as in vitro ADME. As to conditions: chymotrypsin (isolated protease); 10 μl peptide 0.29 mM in 990 μl 100 mM Tris-HCl pH 8.0, 10 mM CaCl2; 10 μl chymotrypsin 50 μg/ml; 25°C; LC-MS of intact peptide, exponential decay fit; 3 experiments. The procedure:
(§1) This is an important parameter to assess for the development of peptide therapeutics. Peptides 4bb, 4ca, and 4a, and the unstapled analog peptide 4, as well as both SAH-RSVFBD isomers, were treated with chymotrypsin or trypsin, and the samples were analyzed by LC/MS to quantify the reaction products over time. […] In comparison, both SAH-RSVFBD isomers were more susceptible to proteolytic degradation, with half-lives of approximately 7 h and 5 min against chymotrypsin and trypsin, respectively.
(§2) In vitro proteolytic degradation was measured via LC-MS using an Agilent Infinity 1280 UHPLC system coupled to an Agilent quadrupole time of flight (QTOF) 6530 instrument with an Agilent Jet Stream electrospray ionization (AJS ESI) source (all from Agilent Technologies, Waldbronn, Germany). Five microliters of digested sample was injected onto a C18 column (Zorbax Eclipse Plus RRHD, 1.8 μm, 2.1 by 100 mm; Agilent Technologies, Waldbronn, Germany) equilibrated with solvent A (5% acetonitrile, 0.2% formic acid) and eluted with a flow rate of 0.4 ml/min over a 5 to 95% gradient of solvent B (95% acetonitrile, 0.2% formic acid) in 5 min, followed by 1.5 min at 95% and 0.5 min posttime. The AJS ESI source was operated with a capillary voltage of 4,000 V and a nozzle voltage of 600 V with a drying gas temperature of 325°C and flow rate of 10 liters/min, nebulizing gas pressure of 20 lb/in^2, and a sheath gas temperature of 300°C and flow rate of 11 liters/min. Mass spectra were acquired in the positive-ion mode from 100 to 3,200 m/z at a rate of 1 scan per second in extended dynamic range (2 GHz) mode. The fragmentor, skimmer, and octopole RF voltages were set to 200, 60, and 750 V, respectively. Data were acquired and analyzed with the Agilent MassHunter Workstation (version B.05).
(§3) Peptide digestion was performed as follows: 10 μl of peptide at 0.29 mM in 50:50 acetonitrile-water was dissolved in 990 μl 100 mM Tris-HCl (pH 8.0) with 10 mM CaCl2. Following measurement of the undigested (t0) sample, 10 μl of chymotrypsin at 50 μg/ml in 100 mM Tris-HCl (pH 8.0) with 10 mM CaCl2 was added, and the sample was vortexed and placed immediately in the autosampler, set to 25°C. The level of intact peptide was quantified by serial injection over time. Integration of the intact peptide compound chromatogram was performed using the Agilent Molecular Feature Extraction (MFE) algorithm. The value of the fit at t = 0 min was used to calculate the percentage of the intact peptide at each point as follows: Percent intact (t) = [Vol (t)/Volt0] × 100, where Vol is the total volume calculated using Find Compounds by Molecular Feature and Volt0 is the value of the fit at time t = 0. A plot of the intact peptide MFE peak area over time gave an exponential decay curve, from which the half-life was determined using MatLab […].

Data set [2] can be described thus: Far-UV circular dichroism, α-helical content. It is filed as physicochemical. As to conditions: CD; for % Helicity: 10 mM phosphate buffer pH 7.5, 50 μM peptide, 25°C. The procedure: The circular dichroism spectra were acquired on a Chirascan spectropolarimeter. The samples were prepared in 10 mM phosphate buffer, pH 7.5, at a peptide concentration of 50 μM. Data were recorded at 25°C by step scan from 180 nm to 260 nm in a 0.5-mm path length quartz cell using 1-nm wavelength increments and a response time of 1 s. The data were converted to per residue molar ellipticity units [θ] (degree per square centimeter per decimole per residue) and smoothed using the Igor Pro software. The percentage of helicity was calculated as described previously ([35]).

Data set [3] can be described thus: Proteolytic stability assay, trypsin. Format: in vitro ADME. As to conditions: trypsin (isolated protease); 100 mM Tris-HCl pH 8.0, 10 mM CaCl2, 25°C; LC-MS of intact peptide, exponential decay fit; 3 experiments. As for the experimental part:
as §1, §2
as §3, with “Integration of the intact peptide compound chromatogram was performed using the Agilent Molecular Feature Extraction (MFE) algorithm.” left out

Data set [4] relates to recombinant GFP-expressing RSV (strain A2) in A549 cells. It is filed as cell-based, human respiratory syncytial virus. As to conditions: cellular RSV-eGFP assay, data not shown. The procedure:
A549 cells were infected with a recombinant green fluorescent protein (GFP)-expressing RSV (strain A2) ([23]), and the inhibitory activity of the peptide was quantified by flow cytometry.
Each peptide was diluted 3 times by 2-fold serial dilutions. eGFP RSV virus at an MOI of 0.5 was used for the infection, and GFP-positive cells were counted by FACS analysis 24 h p.i. The GFP data were normalized to the fluorescence values observed with virus only and plotted as percent inhibition.
Serial 4-fold dilutions of inhibitors were mixed with eGFP-encoding RSV virus ([23]) with a volume of virus required to achieve approximately 50% of infection in medium containing 2% fetal calf serum. The resulting mixture was added to 24-well plates containing A549 cells. Cells were incubated for 2 h at 37°C, the medium was replaced, and cells were incubated for an additional 24 h. Cells were treated with 300 μl of trypsin for 10 min at 37°C, and the detached cells were diluted in 1 ml of culture medium. Following centrifugation at 1,700 rpm, the pellet was resuspended in 300 μl of PBS–1% fetal bovine serum (FBS) (vol/vol) and GFP-positive cells were counted by fluorescence-activated cell sorter (FACS) analysis. The GFP data were normalized to the fluorescence value observed with virus only. The resulting inhibition curves were fitted in Igor Pro as described above.

For data set [5], the system named is rHRSV-mCherry in HEp-2 cells. Description: rHRSV-mCherry inhibition assay. Format: cell-based, human respiratory syncytial virus. As to conditions: HEp-2 cells. The procedure, abridged: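 HEp-2 cells infected at MOI 0.2 with rHRSV-mCherry preincubated 15–20 min with serially diluted peptide, peptide kept in 2% FBS medium for 48 h at 37°C. Replication read as mCherry fluorescence (ex 580/em 620 nm), normalized to untreated infected cells; duplicates, curves fitted.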

The target of data set [6] is 5HB, a recombinant protein containing 3 HR1 domains covalently attached to 2 HR2 domains. The conditions noted are these: competition with fluorescently labeled T108 probe (2 nM), 5HB 50 nM, 10 min preincubation + 30 min room temperature, duplicates.
A further data set can be described thus: circular dichroism. As to conditions: 10 mM phosphate; pH 7.5; 25 °C; 50 uM.
The next data set deals with chymotrypsin. The experiment in a line: Proteolytic stability assay, chymotrypsin. Format: in vitro ADME. The conditions noted are these: treated with chymotrypsin or trypsin, LC/MS. As for the experimental part:
as §1, §2, §3

A further data set concerns RSV. As to conditions: cited from earlier work. From the text: The RSV fusion glycoprotein (F) is the focus of active research in the field of vaccines, neutralizing antibodies, and small molecules. […] RSV F is a type I fusion protein that is activated into a metastable prefusion state upon cleavage by host proteases. The prefusion state contains a hydrophobic fusion peptide, ...

The mark [7] stands for this setting: RSV-Cherry MOI 0.2, peptide and virus removed after infection and fresh peptide added, mCherry fluorescence 48 h p.i., at least twice in duplicate.

For `CC[C@H](C)[C@H](NC(=O)[C@H](CCCCN)NC(=O)[C@H](CCC(=O)O)NC(C)=O)C(=O)N[C@@H](CC(N)=O)C(=O)N[C@@H](CCC(N)=O)C(=O)N[C@@H](CO)C(=O)N[C@@H](CC(C)C)C(=O)N[C@@]1(C)CCCC=CCCC[C@@](C)(C(=O)N[C@@H](CO)C(=O)N[C@@H](CC(=O)O)C(=O)N[C@@]2(C)CCCC=CCCC[C@@](C)(C(=O)N[C@H](C(N)=O)C(C)C)NC(=O)[C@H](Cc3c[nH]cn3)NC(=O)[C@H](CC(C)C)NC(=O)[C@H](CC(C)C)NC2=O)NC(=O)[C@H](CCCNC(=N)N)NC(=O)[C@H]([C@@H](C)CC)NC(=O)[C@H](Cc2ccccc2)NC1=O` [Peptide 4a] (Ac-EKINQSL[S5]FIR[S5]SD[S5]LLH[S5]V-NH2; staple 8-12, 15-19), the half-life at 2.9 µM in data set [1] is 74.7 h. For the same molecule, the “% Helicity” value in data set [2] (Table 2) worked out at 23.5%; in data set [2] (Table 3 (Ala scan)) it was 64%. The same molecule gave a half-life in data set [3] of 78 min. Besides, the “potency relative to hit peptide 3ac” value in [4] is “twice more potent”.

In turn, `CC[C@H](C)[C@@H]1NC(=O)[C@H](CO)NC(=O)[C@](C)(NC(=O)[C@H](CC(=O)O)NC(=O)[C@H](Cc2ccccc2)NC(C)=O)CCCCCCC=CCCC[C@@](C)(C(=O)N[C@@H](CCCCN)C(=O)N[C@H](C(=O)N[C@@H](CC(N)=O)C(=O)N[C@@H](CCC(N)=O)C(=O)N[C@@H](CO)C(=O)N[C@@H](CC(C)C)C(=O)N[C@@H](C)C(=O)N[C@@H](Cc2ccccc2)C(=O)N[C@H](C(=O)N[C@]2(C)CCCCCCC=CCCC[C@@](C)(C(=O)N[C@@H](CC(N)=O)C(=O)N[C@H](C(=O)N[C@@H](CC(N)=O)C(=O)N[C@@H](C)C(=O)NCC(=O)N[C@@H](CCCCN)C(=O)N[C@@H](CO)C(=O)N[C@H](C(N)=O)[C@@H](C)O)C(C)C)NC(=O)[C@H](CC(C)C)NC(=O)[C@H](CC(C)C)NC(=O)[C@H](CCC(=O)O)NC(=O)[C@H](CC(=O)O)NC(=O)[C@H](CO)NC(=O)[C@H](CCCCN)NC2=O)[C@@H](C)CC)[C@@H](C)CC)NC(=O)[C@H](CC(N)=O)NC(=O)[C@H](C(C)C)NC(=O)[C@H](CCC(N)=O)NC(=O)[C@H](CO)NC1=O` [RSV-SAHBD (E), reference compound] showed a half-life at 2.9 µM in data set [1] of 6.5 h. This molecule gave a half-life in data set [3] of 1.2 min.

In the case of `CC[C@H](C)[C@H](NC(=O)[C@H](CCCCN)NC(=O)[C@H](CCC(=O)O)NC(C)=O)C(=O)N[C@@]1(C)CCCC=CCCC[C@@](C)(C(=O)N[C@@H](Cc2ccccc2)C(=O)N[C@H](C(=O)N[C@@]2(C)CCCC=CCCC[C@@](C)(C(=O)N[C@@H](CC(C)C)C(=O)N[C@@H](CC(C)C)C(=O)N[C@@H](Cc3c[nH]cn3)C(=O)N[C@@H](CC(N)=O)C(=O)N[C@H](C(N)=O)C(C)C)NC(=O)[C@H](CC(=O)O)NC(=O)[C@H](CO)NC(=O)[C@H](CCCCN)NC2=O)[C@@H](C)CC)NC(=O)[C@H](CC(C)C)NC(=O)[C@H](CO)NC(=O)[C@H](CCC(N)=O)NC1=O` [Peptide 4bb] (Ac-EKI[S5]QSL[S5]FI[S5]KSD[S5]LLHNV-NH2; staple 4-8, 11-15), the half-life at 2.9 µM in data set [1] is 50.1 h. The EC50 in data set [5] (setting [7]) stood at 740 ± 270 nM; in data set [5] (Table 3 (Ala scan), rHRSV-mCherry MOI 0.2, 2-fold serial dilutions (11 dilutions), duplicate, ± SD of fit), 670 ± 70 nM. Moreover, the “% Helicity” value was 48.1% in data set [2] (Table 2) and 53% in data set [2] (Table 3 (Ala scan)). Moreover, the half-life in data set [3] is 18 min.

On to `CC[C@H](C)[C@H](NC(=O)[C@H](CCCCN)NC(=O)[C@]1(C)CCCC=CCCC[C@](C)(NC(=O)[C@@H](NC(=O)[C@H](CO)NC(=O)[C@]2(C)CCCC=CCCC[C@](C)(NC(=O)[C@H](CO)NC(=O)[C@@H]3CCCN3C(=O)[C@H](Cc3ccccc3)NC(=O)[C@H](CCC(=O)O)NC(C)=O)C(=O)N[C@@H](CCC(=O)O)C(=O)N[C@@H](Cc3ccccc3)C(=O)N[C@@H](CC(=O)O)C(=O)N2)[C@@H](C)CC)C(=O)N[C@@H](CCC(N)=O)C(=O)N[C@@H](C(C)C)C(=O)N[C@@H](CC(N)=O)C(=O)N1)C(=O)N[C@@H](CC(N)=O)C(N)=O` [Peptide 1eg] (Ac-EFPS[S5]EFD[S5]SI[S5]QVN[S5]KIN-NH2; staple 5-9, 12-16), for which the Kd in [6] came to 24000 ± 4000 nM. In addition, the “θ208/θ222 molar ellipticity ratio” value in [2] (indicator of α-helical stability) is reported as ~1. In “circular dichroism”, this molecule came in with a helicity of 35.3%.

Turning to `CC[C@H](C)[C@H](NC(=O)[C@H](Cc1ccccc1)NC(=O)[C@H](C)NC(=O)[C@H](CC(C)C)NC(=O)[C@H](CO)NC(=O)[C@H](CCC(N)=O)NC(=O)[C@H](CC(N)=O)NC(=O)[C@@H](NC(=O)[C@H](CCCCN)NC(=O)[C@H](CCC(=O)O)NC(C)=O)[C@@H](C)CC)C(=O)N[C@@H](CCCNC(=N)N)C(=O)N[C@@H](CCCCN)C(=O)N[C@@H](CO)C(=O)N[C@@H](CC(=O)O)C(=O)N[C@@H](CCC(=O)O)C(=O)N[C@@H](CC(C)C)C(=O)N[C@@H](CC(C)C)C(=O)N[C@@H](Cc1c[nH]cn1)C(=O)N[C@@H](CC(N)=O)C(=O)N[C@H](C(N)=O)C(C)C` [Peptide 4] (Ac-EKINQSLAFIRKSDELLHNV-NH2), the “time to full degradation” value with chymotrypsin was ≤ 10 min. In data set [1], this molecule showed a half-life at 2.9 µM of 0.08 h. For the same molecule, the EC50 in data set [5] (setting [7]) is > 50000 nM. Also, the half-life in data set [3] is 4.8 min.

On to `Cc1cn2nc([C@@H]3CCCCN3C(=O)c3cc(Cl)ccc3NS(C)(=O)=O)cc2nc1N1CC[C@H](N)C1` [GS-5806], for which the 50% effective concentration (EC50) in the data set with RSV was 0.4 nM.

The values are drawn from article PMC5365662, “A Short Double-Stapled Peptide Inhibits Respiratory Syncytial Virus Entry and Spreading” (Antimicrobial Agents and Chemotherapy, 2017).
